Experimental data published in publication PMC6044753, “Diclofenac Identified as a Kynurenine 3-Monooxygenase Binder and Inhibitor by Molecular Similarity Techniques” (ACS Omega, 2018).

Target: kynurenine 3-monooxygenase (KMO) (Homo sapiens, UniProt O15229)
Test: microdialysis (rapid equilibrium dialysis) with LC-MS on enriched HEK-KMO lysate; supported by cell lysate enzymatic inhibition, IC50 […]
Assay type: binding

Sequence of kynurenine 3-monooxygenase (KMO) (O15229 whole entry): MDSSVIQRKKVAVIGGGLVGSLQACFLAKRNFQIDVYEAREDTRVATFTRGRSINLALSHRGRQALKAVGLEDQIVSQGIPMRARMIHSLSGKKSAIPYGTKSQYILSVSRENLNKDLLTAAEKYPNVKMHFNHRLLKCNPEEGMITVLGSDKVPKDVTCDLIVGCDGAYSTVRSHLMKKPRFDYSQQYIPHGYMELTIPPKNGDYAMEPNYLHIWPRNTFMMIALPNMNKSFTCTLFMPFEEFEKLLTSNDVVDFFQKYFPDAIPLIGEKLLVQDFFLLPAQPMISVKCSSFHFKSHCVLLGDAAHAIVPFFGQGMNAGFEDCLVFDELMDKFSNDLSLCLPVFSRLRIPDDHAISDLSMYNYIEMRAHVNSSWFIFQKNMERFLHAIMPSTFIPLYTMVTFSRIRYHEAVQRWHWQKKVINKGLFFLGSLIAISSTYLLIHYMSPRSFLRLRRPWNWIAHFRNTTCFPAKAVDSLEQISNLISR

`O=C(O)Cc1ccccc1Nc1c(Cl)cccc1Cl` [diclofenac] gave a Kd of 64.8 ± 29.5 µM.
